For eleven molecules, GI50 and TGI results are on record in PubChem BioAssay (NCI).

Each structure is given as a SMILES string. Values joined by “and” are separate entries in the source; they are usually repeats but may differ in a detail not shown here. Equal entries are not always repeated.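 1) Cells in 96-well plates. 2) Compound, 48 h, 5 concentrations. 3) Linear interpolation between surrounding doses. 4) Unreached endpoint = highest concentration. At the GI50, growth is halved. TGI: concentration producing complete growth inhibition.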

What all share (assay): NCI tumour cell line growth inhibition, 48 h
The test system of assay [1] is A498 renal.
Assay [2] deals with HCT-15 colon.
Assay [3] relates to HOP-62 NSCLC.
Assay [4] deals with HT29 colon.
Assay [5] deals with RPMI-8226 leukemia.
The test system of assay [6] is SN12C renal.
In assay [7] the test system is SR leukemia.
Assay [8] has as its system UACC-62 melanoma.
For assay [9], the system named is MDA-N.

As for `CCCCCCCCC/C(=N\NC(=O)c1ccncc1)c1ccc(O)c(O)c1O`, the GI50 was 1.56 µM in [1]; 0.0635 µM in [2]; 0.09 µM in assay [3]; 0.513 µM in assay [4]; 0.195 µM in [5]; 0.207 µM in [6]. Also, the figures for the GI50 in [7] and in [8] were 0.0576 µM and 0.188 µM, respectively. Moreover, the TGI in assay [1] is greater than 100 µM; in [2], greater than 100 µM; in [3], 16 µM; in assay [4], 32.9 µM; in assay [5], 31.5 µM; in assay [6], 35 µM. Moreover, the figures for the TGI in [7] and in assay [8] were 24.4 µM and 3.3 µM, respectively.

Regarding `O=C(OC1CCC2OOC1O2)c1ccc([N+](=O)[O-])cc1` (stereo not given), the TGI in [1], in assay [2], in assay [3], in assay [4], in [5] and in [6] was greater than 100 µM each time. The TGI in assay [7] and in assay [8] was greater than 100 µM each time.

`Cc1ccc(NC(=O)c2cc3ccccc3c(N=Nc3cc(S(=O)(=O)O)ccc3O)c2O)c(C)c1`: the TGI was greater than 100 µM in assay [1]; greater than 100 µM in assay [2]; greater than 100 µM in [3]; 58.3 µM in assay [4]; greater than 100 µM in [9]; greater than 100 µM in assay [5]. The results for the TGI in [6] and in assay [8] were greater than 100 µM and 83.8 µM, respectively.

Take `COC(=O)C1=COC(C)C2CN3CCc4c([nH]c5cc(OC)c(OC)cc45)C3CC12` (stereo not given): the TGI in assay [1] was greater than 100 µM; in assay [2] it was greater than 100 µM; in assay [3], greater than 100 µM; in [4], > 100 µM and 94.5 µM; in assay [9] it was greater than 100 µM; in assay [5] it was greater than 100 µM. The TGI in assay [6], in assay [7] and in assay [8] was greater than 100 µM each time.

For `O=[N+]([O-])c1ccc(C2CC(c3ccccc3)=Nc3ccccc3S2)cc1` (stereo not given), the GI50 in assay [1] is 59.8 µM; in assay [2] it was 8.03 µM; in assay [3] it was 97.1 µM; in [4] it was 7.62 µM; in assay [5], 2.82 µM; in [6], greater than 100 µM. For the same molecule, the GI50 in [7] was 3.59 µM; in assay [8], greater than 100 µM. In addition, the TGI in assay [1] was greater than 100 µM; in [2], greater than 100 µM; in assay [3], greater than 100 µM; in assay [4], greater than 100 µM; in assay [5] it was 8.29 µM; in assay [6], greater than 100 µM. The TGI in [7] and in assay [8] was greater than 100 µM each time.

`Cc1ccc(-c2cc3c4c(nc5ccccc53)C(=O)c3cccnc3-c4n2)cc1`: the GI50 was 11.8 µM in assay [1]; 12.7 µM in [2]; 15.7 µM in [3]; 8.75 µM in [4]; 3.27 µM in assay [9]; 4.18 µM in assay [5]. Also, the GI50 is 14.4 µM in assay [6] and 16 µM in assay [8]. Besides, the TGI in [1] stood at 32.7 µM; in assay [2], 49.9 µM; in assay [3] it was 37.5 µM; in assay [4], 22.8 µM; in assay [9], 10.3 µM; in assay [5], 54.9 µM. Besides, the TGI came out at 30 µM in assay [6] and 31.1 µM in assay [8].

With `CCOC(=O)Nc1nc2ccc(Br)cc2s1`, the GI50 in assay [1], in [2], in [3], in [4], in [5] and in assay [6] was greater than 50 µM each time. Also, the GI50 in [7] and in assay [8] was greater than 50 µM each time. In addition, the TGI in assay [1], in assay [2], in [3], in [4], in assay [5] and in assay [6] was greater than 50 µM throughout. The TGI in [7] and in assay [8] was greater than 50 µM throughout.

Turning to `CC1(C)CC[C@]2(C(=O)O)CC[C@]3(C)C(=CC[C@@H]4[C@@]5(C)C[C@H](O)[C@H](O)[C@@](C)(C(=O)O)[C@@H]5CC[C@]43C)[C@@H]2C1`, the TGI in [1], in assay [2], in assay [3], in assay [4], in [9] and in assay [5] was greater than 100 µM throughout. Besides, the TGI in [6] was greater than 100 µM; in assay [7], greater than 100 µM; in assay [8] it was greater than 94.2 µM.

For `S=C(NCCNC(=S)[S][Sn]([c]1ccccc1)([c]1ccccc1)[c]1ccccc1)[S][Sn]([c]1ccccc1)([c]1ccccc1)[c]1ccccc1`, the GI50 was 0.0231 µM in assay [1]; 0.0177 µM in [2]; 0.0677 µM in [3]; 0.019 µM in [4]; 0.0234 µM in assay [5]; 0.0325 µM in [6]. The GI50 in [7] was 0.017 µM; in [8], 0.0231 µM. Besides, the TGI in assay [1] was 0.0849 µM; in assay [2] it was 0.0696 µM; in assay [3], 0.147 µM; in [4] it was 0.0584 µM; in assay [5] it was 0.147 µM; in assay [6] it was 0.218 µM. For the same molecule, the TGI in assay [7] was found to be 16.2 µM; in assay [8], 0.104 µM.

Take `[Cl][Hg][c]1ccc(Cl)s1`: the GI50 is 17.2 µM in assay [1]; 0.397 µM in assay [2]; 4.29 µM in assay [3]; 1.14 µM in assay [4]; 2.23 µM in assay [5]; 2.95 µM in assay [6]. Besides, the values for the GI50 in [7] and in assay [8] were 0.319 µM and 1.57 µM, respectively. Further, the TGI was determined as 31.2 µM in assay [1]; 1.72 µM in assay [2]; 21.8 µM in [3]; 4.66 µM in assay [4]; 6.58 µM in assay [5]; 8.19 µM in assay [6]. The same molecule gave a TGI in assay [8] of 3.46 µM.

Consider `Clc1ccc(Nc2ccnc(N3CCN(c4ccnc5cc(Cl)ccc45)CC3)n2)cc1`, for which the GI50 is 0.603 µM in [1]; 2.49 µM in assay [2]; 3.1 µM in assay [3]; 2.03 µM in assay [4]; 2.75 µM in assay [5]; 3 µM in assay [6]. Moreover, the GI50 in assay [7] is 2.51 µM; in assay [8], 1.95 µM. In addition, the TGI was determined as 6.91 µM in assay [1]; 10 µM in [2]; 20.9 µM in [3]; 4.88 µM in [4]; 15.1 µM in [5]; 28.6 µM in [6]. Also, the results for the TGI in [7] and in assay [8] were 8.75 µM and 6.97 µM, respectively.
